# Data published in patent US20260085049A1, “CRYSTAL FORM OF ERGOTHIONEINE” (NANJING NUTRABUILDING BIO-TECH CO., LTD., priority 2023, published 2026).
# How the values were obtained:
# [1] = Analysis and comparison of properties: hygroscopicity; type: physicochemical; details: solid forms prepared from crude ergothioneine
# Protocol: (§1) X-ray diffraction (XRD), differential scanning calorimetry (DSC), elemental analysis, particle size analysis, quantitative nuclear magnetic resonance (NMR), Raman spectroscopy, infrared spectroscopy (IR), TGA, IPC-MS, DVS and other tests were carried out on the crystal forms prepared in the Examples.
# (§2) Using crude ergothioneine as raw material, three crystal forms A, B and C were prepared respectively, and their properties were compared with those of amorphous ergothioneine.
# [2] = Analysis and comparison of properties: moisture; type: physicochemical; details: solid forms prepared from crude ergothioneine
# Protocol: as §1, §2
# [3] = listed as amorphous ergothioneine
Hygroscopicity [1],"Hygroscopicity [1, 3]",Moisture (%) [2] [%],"Moisture (%) [2, 3] [%]",SMILES
Easily,strong hygroscopicity,1.29,1.29,"C[N+](C)(C)[C@@H](Cc1c[nH]c(=S)[nH]1)C(=O)[O-] [Amorphous, ergothioneine]"
Stable,,0.07,,"C[N+](C)(C)[C@@H](Cc1c[nH]c(=S)[nH]1)C(=O)[O-] [Crystal form A, ergothioneine]"
Stable,,0.09,,"C[N+](C)(C)[C@@H](Cc1c[nH]c(=S)[nH]1)C(=O)[O-] [Crystal form C, ergothioneine]"
Stable,,0.10,,"C[N+](C)(C)[C@@H](Cc1c[nH]c(=S)[nH]1)C(=O)[O-] [Crystal form B, ergothioneine]"
